Measured values published in ChEMBL document CHEMBL1201862, “PubChem BioAssay data set” (2004).
Calls of active or inactive are those of the source.

Columns and labels:
[1] = target: T1, Fructose-bisphosphate aldolase (Mycobacterium tuberculosis, UniProt P9WQA3); test: Fluorescence-based biochemical high throughput dose response assay for inhibitors of the fructose-bisphosphate aldolase (FBA) of M. tuberculosis.; format: functional
T1 sequence (P9WQA3 whole entry): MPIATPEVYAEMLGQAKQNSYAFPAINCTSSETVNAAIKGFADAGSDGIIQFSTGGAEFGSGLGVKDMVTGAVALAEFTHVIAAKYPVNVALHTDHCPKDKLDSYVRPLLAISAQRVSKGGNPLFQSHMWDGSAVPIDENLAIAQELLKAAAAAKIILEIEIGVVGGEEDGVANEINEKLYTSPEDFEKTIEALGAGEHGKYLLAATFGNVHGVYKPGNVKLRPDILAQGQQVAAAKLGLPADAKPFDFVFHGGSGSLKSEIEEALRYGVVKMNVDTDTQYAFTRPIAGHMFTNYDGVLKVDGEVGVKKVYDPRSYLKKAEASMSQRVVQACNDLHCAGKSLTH

Genome polyprotein = Genome polyprotein (dengue virus type 2, UniProt P29990); test: Dengue-2 NS5 methyltransferase inhibitors, primary screen, biochemical, confirmation dose response (AID 588689); format: functional
Sequence of Genome polyprotein (P29990 2492-3391 limits assumed): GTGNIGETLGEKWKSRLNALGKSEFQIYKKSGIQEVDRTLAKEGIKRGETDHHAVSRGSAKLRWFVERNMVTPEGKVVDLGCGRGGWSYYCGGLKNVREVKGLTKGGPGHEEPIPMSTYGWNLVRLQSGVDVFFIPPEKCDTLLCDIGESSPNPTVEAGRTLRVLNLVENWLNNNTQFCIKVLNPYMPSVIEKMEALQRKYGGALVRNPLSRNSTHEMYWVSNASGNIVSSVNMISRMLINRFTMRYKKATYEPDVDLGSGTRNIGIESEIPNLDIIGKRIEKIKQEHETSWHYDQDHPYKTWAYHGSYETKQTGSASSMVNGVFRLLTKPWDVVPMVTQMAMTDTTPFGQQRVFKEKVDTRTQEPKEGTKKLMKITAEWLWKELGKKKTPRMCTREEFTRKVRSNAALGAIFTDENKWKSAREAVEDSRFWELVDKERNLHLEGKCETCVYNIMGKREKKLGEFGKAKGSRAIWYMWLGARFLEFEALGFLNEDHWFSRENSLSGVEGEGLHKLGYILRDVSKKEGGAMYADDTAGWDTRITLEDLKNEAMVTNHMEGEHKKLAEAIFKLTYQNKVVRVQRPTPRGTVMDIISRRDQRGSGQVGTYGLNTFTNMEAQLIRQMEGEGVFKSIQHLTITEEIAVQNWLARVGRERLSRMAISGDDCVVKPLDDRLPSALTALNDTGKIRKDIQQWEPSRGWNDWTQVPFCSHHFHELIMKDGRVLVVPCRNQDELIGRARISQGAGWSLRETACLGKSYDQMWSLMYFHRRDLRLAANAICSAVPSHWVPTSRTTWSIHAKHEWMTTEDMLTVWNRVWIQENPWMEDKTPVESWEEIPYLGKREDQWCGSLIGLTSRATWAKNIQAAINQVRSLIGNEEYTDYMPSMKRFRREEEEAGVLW

[2] = target: T2, Carboxy-terminal domain RNA polymerase II polypeptide A small phosphatase 1 (Homo sapiens, UniProt Q9GZU7); test: inhibitors of CTDSP1, concentration-response testing, biochemical assay, absorbance-based, actives from ultra-high-throughput screening (AID 540297); format: functional
T2 sequence (Q9GZU7 whole entry): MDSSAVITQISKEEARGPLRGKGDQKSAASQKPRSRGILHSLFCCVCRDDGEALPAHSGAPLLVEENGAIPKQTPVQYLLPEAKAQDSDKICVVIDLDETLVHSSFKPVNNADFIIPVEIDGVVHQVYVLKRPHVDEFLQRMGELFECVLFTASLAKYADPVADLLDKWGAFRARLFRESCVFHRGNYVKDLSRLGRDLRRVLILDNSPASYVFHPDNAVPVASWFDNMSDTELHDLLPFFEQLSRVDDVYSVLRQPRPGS

HEK293 [3] = test: NOD1 signaling inhibitors, primary screen, cell-based, luminescence, uHTS (AID 1578); format: functional; conditions: Homo sapiens
HEK293 [4] = test: cells; format: functional, cell-based; conditions: Homo sapiens
HEK293 [5] = test: cells; format: functional, cell-based; conditions: Homo sapiens; remark: listed apart in the source
HEK293 [6] = test: NOD2 signaling inhibitors in MDP-stimulated cells, cell-based, uHTS, luminescence (AID 2001); format: functional; conditions: Homo sapiens
Tumor necrosis factor = Tumor necrosis factor (Homo sapiens, UniProt P01375); test: TNFa-triggered NF-kB activation inhibitors, SAR follow-up, cell-based, revised (AID 2337); format: functional
Sequence of Tumor necrosis factor (P01375 whole entry, the tested form may be a part): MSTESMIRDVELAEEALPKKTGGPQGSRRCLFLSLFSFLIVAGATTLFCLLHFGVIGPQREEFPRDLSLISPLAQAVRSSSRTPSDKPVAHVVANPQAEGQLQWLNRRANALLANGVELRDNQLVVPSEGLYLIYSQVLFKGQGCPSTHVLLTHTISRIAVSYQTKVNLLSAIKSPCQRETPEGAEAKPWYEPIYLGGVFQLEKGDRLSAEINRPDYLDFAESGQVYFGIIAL

[7] = target: T3, Nucleotide-binding oligomerization domain-containing protein 1 (Homo sapiens, UniProt Q9Y239); test: NOD1 signaling inhibitors, SAR follow-up, revised (AID 2333); format: functional
T3 sequence (Q9Y239 whole entry): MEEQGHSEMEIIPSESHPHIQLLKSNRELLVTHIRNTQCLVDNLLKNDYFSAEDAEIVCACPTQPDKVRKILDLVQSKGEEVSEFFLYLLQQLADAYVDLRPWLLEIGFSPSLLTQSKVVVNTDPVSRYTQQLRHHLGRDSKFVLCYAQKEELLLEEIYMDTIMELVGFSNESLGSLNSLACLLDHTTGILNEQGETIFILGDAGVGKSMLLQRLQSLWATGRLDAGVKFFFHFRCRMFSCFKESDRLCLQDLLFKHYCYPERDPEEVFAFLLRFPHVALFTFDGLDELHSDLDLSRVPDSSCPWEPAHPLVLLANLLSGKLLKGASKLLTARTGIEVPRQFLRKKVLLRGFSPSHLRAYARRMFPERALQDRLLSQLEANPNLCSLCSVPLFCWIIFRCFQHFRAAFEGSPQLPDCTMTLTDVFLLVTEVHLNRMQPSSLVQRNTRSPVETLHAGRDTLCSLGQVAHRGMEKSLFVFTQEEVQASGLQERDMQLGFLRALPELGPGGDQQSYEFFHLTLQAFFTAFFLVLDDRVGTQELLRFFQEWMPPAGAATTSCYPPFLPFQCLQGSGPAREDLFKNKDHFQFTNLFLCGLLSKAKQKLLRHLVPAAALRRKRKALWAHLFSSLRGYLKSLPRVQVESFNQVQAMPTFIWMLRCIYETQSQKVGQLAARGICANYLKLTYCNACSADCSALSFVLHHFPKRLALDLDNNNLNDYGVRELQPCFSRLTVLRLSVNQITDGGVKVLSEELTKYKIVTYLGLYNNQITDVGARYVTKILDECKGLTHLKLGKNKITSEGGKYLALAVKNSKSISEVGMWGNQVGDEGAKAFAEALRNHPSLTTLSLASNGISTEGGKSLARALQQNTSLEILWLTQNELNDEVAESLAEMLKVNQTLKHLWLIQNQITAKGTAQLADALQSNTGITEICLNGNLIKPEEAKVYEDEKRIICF

HEK293 [8] = test: cells; conditions: Homo sapiens
[9] = target: T4, Long-chain-fatty-acid--AMP ligase FadD28 (Mycobacterium tuberculosis, UniProt P9WQ59); test: Fluorescence polarization aasay to screen for inhibitors that compete for the binding of FadD28 to a bisubstrate Measured in Biochemical System Using Plate Reader - 2147-01_Inhibitor_Dose_CherryPick_Activity.; format: functional, Mycobacterium tuberculosis H37Rv
T4 sequence (P9WQ59 whole entry): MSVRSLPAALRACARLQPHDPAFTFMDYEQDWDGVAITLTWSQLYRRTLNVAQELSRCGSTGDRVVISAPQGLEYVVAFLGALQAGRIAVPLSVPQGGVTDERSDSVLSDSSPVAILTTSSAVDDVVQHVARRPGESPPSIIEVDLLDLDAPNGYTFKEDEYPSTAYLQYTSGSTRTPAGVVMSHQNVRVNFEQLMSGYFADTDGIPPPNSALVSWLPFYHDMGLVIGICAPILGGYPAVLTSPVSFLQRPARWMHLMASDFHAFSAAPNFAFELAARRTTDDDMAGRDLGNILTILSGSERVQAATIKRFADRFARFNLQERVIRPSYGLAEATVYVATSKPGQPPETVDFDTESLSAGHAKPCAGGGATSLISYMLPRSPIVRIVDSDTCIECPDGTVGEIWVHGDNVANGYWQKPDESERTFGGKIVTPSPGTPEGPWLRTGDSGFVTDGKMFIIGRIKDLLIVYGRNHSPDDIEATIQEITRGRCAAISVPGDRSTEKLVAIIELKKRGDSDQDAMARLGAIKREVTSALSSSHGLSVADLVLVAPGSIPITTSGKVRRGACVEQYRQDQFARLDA

[10] = target: T5, DNA repair and recombination protein RAD54-like (Homo sapiens, UniProt Q92698); test: inhibitors of human RAD54 branch migration, confirmation, biochemical, fluorescence, cherry-picked samples, dose series (AID 651657); format: functional
T5 sequence (Q92698 whole entry): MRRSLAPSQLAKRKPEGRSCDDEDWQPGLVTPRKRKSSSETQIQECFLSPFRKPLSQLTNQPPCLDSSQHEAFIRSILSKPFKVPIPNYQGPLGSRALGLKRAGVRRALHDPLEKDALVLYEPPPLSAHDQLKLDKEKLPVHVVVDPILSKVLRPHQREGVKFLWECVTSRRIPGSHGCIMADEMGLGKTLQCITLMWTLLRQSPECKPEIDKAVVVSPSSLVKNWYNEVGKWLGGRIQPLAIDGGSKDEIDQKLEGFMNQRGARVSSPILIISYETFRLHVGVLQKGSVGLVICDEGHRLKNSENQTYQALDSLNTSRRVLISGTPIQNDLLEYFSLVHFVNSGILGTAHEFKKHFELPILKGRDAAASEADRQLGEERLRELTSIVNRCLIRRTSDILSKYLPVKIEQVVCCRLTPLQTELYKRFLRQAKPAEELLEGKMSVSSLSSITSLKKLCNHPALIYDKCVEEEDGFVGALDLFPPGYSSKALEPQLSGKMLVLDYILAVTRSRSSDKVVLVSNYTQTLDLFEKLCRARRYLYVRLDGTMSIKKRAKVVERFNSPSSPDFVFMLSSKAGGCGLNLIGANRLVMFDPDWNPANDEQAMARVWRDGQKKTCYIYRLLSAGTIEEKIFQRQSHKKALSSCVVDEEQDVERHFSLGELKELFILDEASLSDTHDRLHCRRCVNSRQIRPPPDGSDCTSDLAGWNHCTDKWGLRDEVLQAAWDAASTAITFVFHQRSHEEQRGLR

[11] = target: T6, DNA repair protein RAD52 homolog (Homo sapiens, UniProt P43351); format: functional, biochemical
T6 sequence (P43351 whole entry): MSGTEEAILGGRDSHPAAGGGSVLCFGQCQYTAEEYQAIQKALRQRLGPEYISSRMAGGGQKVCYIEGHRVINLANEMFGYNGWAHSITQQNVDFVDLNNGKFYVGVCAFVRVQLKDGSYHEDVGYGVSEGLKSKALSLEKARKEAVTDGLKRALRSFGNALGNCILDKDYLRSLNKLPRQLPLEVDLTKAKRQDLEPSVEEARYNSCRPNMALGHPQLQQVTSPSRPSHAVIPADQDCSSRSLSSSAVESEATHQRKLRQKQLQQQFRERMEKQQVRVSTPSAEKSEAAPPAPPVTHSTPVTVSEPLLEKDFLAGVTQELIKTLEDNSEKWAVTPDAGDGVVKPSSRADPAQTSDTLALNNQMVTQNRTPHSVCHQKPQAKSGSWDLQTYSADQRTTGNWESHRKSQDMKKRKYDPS

[12] = inhibitors of firefly luciferase expression or activity, dose response, H4 neuroglioma cells, luminescence (AID 1990); format: functional, cell-based
[13] = Luminescence Cell-Based Dose Response HTS to Identify Inhibitors of 5'UTR Stem-Loop Driven Prion Protein mRNA Translation in H4 Neuroglioblastoma Cells. [Related pubchem assays: 1827 (Project Summary), 1813 (Primary HTS)]; format: functional
[14] = tested on: Streptococcus sp. 'group A'; test: growth inhibition of control SK(-) GAS strain, dose response, counter-screen for streptokinase expression inhibitor project, luminescence, kanamycin, BacTiterGlo, confirmation (AID 1900); format: functional, organism-based
[15] = inhibitors of SNCA 5'UTR-driven reporter translation, confirmation, H4 neuroglioma cells, luminescence (AID 1988); format: functional, cell-based
[16] = inhibitors of intracellular T. cruzi replication, confirmation, NIH3T3 host cells, beta-gal luminescence (AID 2044); format: functional, cell-based;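 also: intracellular parasites grown in NIH/3T3 mouse fibroblasts as host cells; luminescent beta-galactosidase reporter signal from transgenic T. cruzi replicating inside host cells; inhibitors lower the luminescence signal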
[17] = cytotoxicity toward NIH3T3 fibroblasts, dose response, counter-screen, cell-based, ATP luminescence, mouse fibroblasts (AID 2010); format: functional;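 also: cells exposed to compound for about 90 hours before reading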
Streptococcus = test: Group A Streptococcus viability loss, dose response, counter-screen for streptokinase expression inhibitor project, luminescence, BacTiterGlo (AID 1915); format: functional, organism-based;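 also: potency for reduction of bacterial viability or growth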
INS1 = test: beta cell apoptosis inhibitors, cytokine rescue, dose response, luminescence, retest (AID 449756); format: functional, cell-based; conditions: ins1;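 also: cell death triggered by IL-1 beta plus TNF-alpha plus IFN-gamma mixture; protective hits raise ATP signal compared with cytokine alone wells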
[18] = nonselective inhibitors of cellular cAMP signaling, dose response, counter-screen for MC4R biased antagonist project, cell-based, TR-FRET cAMP detection (AID 602305); format: functional;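 also: U2OS cells stimulated with forskolin near its EC80 as the cAMP inducer; potency is for inhibition of forskolin-stimulated cAMP signaling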
[19] = HeLa cell cytotoxicity, dose response, cytotoxicity control for MgcRacGAP inhibitor project (AID 624300); format: functional

In the case of `CC(C)(CNC(=O)c1cc(-c2ccc(Cl)s2)nc2ccccc12)N1CCOCC1`, the IC50 [1] is reported as 1.59 µM (active).

For `O=C(O)CN1C(=O)/C(=C2\C(=O)N(Cc3ccccc3Cl)c3ccccc32)SC1=S`, the IC50 (Genome polyprotein) was 28.2 µM (active) and the IC50 [2] was 2.61 µM (active).

With `Cc1nnsc1-c1nc2ccccc2[nH]1` the IC50 [1] was 1.4 µM (active).

In the case of `COc1ccc(-c2cc(=O)oc3cc(OCC(=O)Nc4ccc(CCO)cc4)ccc23)cc1`, the EC50 (HEK293 [3]) is reported as 9.26 µM (active), the IC50 (HEK293 [4]) is reported as > 20 µM (inactive) and the IC50 (HEK293 [5]) is reported as > 20 µM (inactive). For the same molecule, the IC50 (HEK293 [6]) was > 20 µM (inactive), the IC50 (Tumor necrosis factor) was > 20 µM (inactive) and the IC50 [7] was 5.18 µM (active). For the same molecule, the IC50 (HEK293 [8]) was > 20 µM (inactive).

For `Cn1c(-c2cccs2)nc2ccccc21`, the IC50 [1] was 1.48 µM (active).

For `CCCCCC1C(=O)N2C=C(c3ccccc3)c3ccccc3N2C1=O` (centres undefined) [CINTAZONE], the AC50 [9] was 67.3 µM (active).

With `COc1ccc(-c2cc(NC=O)c3ncc(-c4cccc(C(=O)NCCN(C)C)c4)n3c2)cc1` the AC50 [10] was 9.93 µM (active) and the AC50 [11] was 2.81 µM (active).

For `CC1CCN(CCCNC(=O)c2cc3c(=O)n(C)c4ccccc4c3n2C)CC1`, the AC50 [10] was 27.8 µM (active).

For `CCOc1cc(/C=N/Nc2ccc(S(=O)(=O)Nc3ccccc3C(=O)O)cc2[N+](=O)[O-])cc(Cl)c1O`, the IC50 (Genome polyprotein) was 30.4 µM (active).

With `COc1ccc(Cl)c2sc(N(CCN(C)C)C(=O)C3=COCCO3)nc12` the AC50 [10] was 38 µM (active).

For `Cc1nc2ccccc2c2oc(C(=O)NCCN3CCCCC3C)cc12` (centres undefined), the AC50 [10] was 35.2 µM (active).

For `CC1(C)Oc2cc3oc(-c4cc(O)cc(O)c4)cc3cc2CC1O` (stereo not drawn) [(+/-)-MORACIN P], the EC50 [12] was 4.04 µM (inconclusive), the EC50 [13] was 11.1 µM (active) and the AC50 [9] was 65.8 µM (active).

In the case of `N=C(NCCCCCCNC(=N)NC(=N)Nc1ccc(Cl)cc1)NC(=N)Nc1ccc(Cl)cc1`, the EC50 [12] is reported as 8.64 µM (active), the EC50 [14] is reported as 0.517 µM (active) and the EC50 [13] is reported as 18.2 µM (active). For the same molecule, the EC50 [15] was 9.88 µM (active), the EC50 [16] was 0.332 µM (active) and the EC50 [17] was 7.82 µM (active). The EC50 (Streptococcus) was 2.09 µM (active), the AC50 (INS1) was 4.27 µM (active) and the IC50 [18] was 61.2 µM (inactive). The CC50 [19] was 37.9 µM (active).

In the case of `CCCCN=C(S)N(CCN(CC)CC)Cc1cc2cc3c(cc2nc1O)OCO3`, the IC50 [1] is reported as 2.44 µM (active).

In the case of `NS(=O)(=O)c1ccc(CNC(=O)C(Cc2ccccc2)NS(=O)(=O)c2ccccc2F)cc1` (centres undefined), the AC50 [9] is reported as 39.3 µM (active).
